Earlier results as cited in patent publication US6630178B1, “Composition comprising soy protein, dietary fibres and a phytoestrogen compound and use thereof in the prevention and/or treatment of cardiovascular diseases” (Nutri Pharma Asa, priority 1998, dated 2003).

Tested on: estrogenic effect
Conditions: estradiol = 100; in vitro

SMILES: O=c1c(-c2ccc(O)cc2)coc2cc(O)ccc12 [daidzein]
- relative estrogenic potency as compared to estradiol: 0.013
